Reference: paper PMC6718736, “Validation of in vitro methods for human cytochrome P450 enzyme induction: Outcome of a multi-laboratory study” (Toxicology in Vitro, 2019)
Where two headings read alike, the source gives them in different places. Each block holds one molecule with its values, some of them ahead of it.

Assays:
CYP3A4 [1] = settings: in vivo; cited from earlier work
CYP = CYP isoforms induced; ref Abadie et al. (2009), Richert et al. (2010), Preissner et al. (2010), Hoffmann et al. (2014); cited from earlier work
[2] = Solubility by visual inspection (DMSO stock solution and assay medium); assay type: physicochemical; settings: assay medium
Protocol: The SOPs relied on visual inspection for solubility observation. […] The absence of precipitation in the medium was checked pre- and post-incubation (24 hours) by centrifugation of the sample and observation of any precipitation (pellet residue).

CYP1A2 [3] = settings: cited from earlier work; for CYP induction in vivo literature reference: CYP1A2: human in vivo, CYP named without remark = induced, ref references in the cell, Washington University database, Hoffmann et al. (2014), Pelkonen et al. (2008), Hukkanen et al. (2012)
CYP1A2 [4] = experiment: CYP1A2 enzyme induction assay in cryopreserved primary human hepatocytes (PHH); assay type: in vitro ADME; settings: for Assigned classification CYP1A2: PHH
CYP3A4 [5] = test system: CYP3A4
CYP2B6 = CYP2B6 enzyme induction assay in cryopreserved primary human hepatocytes (PHH); assay type: in vitro ADME; settings: for Assigned classification CYP2B6: PHH
[6] = cited from earlier work
[7] = Solubility by nephelometry (EURL ECVAM); assay type: physicochemical; settings: for HepaRG medium stability / PHH medium stability: ECVAM nephelometry, ^2 = solubility limit
Description: In addition to the visual inspection performed by the validation laboratories as described in the SOP, EURL ECVAM introduced nephelometry for systematic solubility determination of the 13 validation set chemicals. Nephelometry uses a laser beam and the principle of Tyndall effect light scatter to detect turbidity due to insolubility. The nephelometer method used formazin as reference item (1, 5, 10 and 20 nephelometric turbidity units (NTU)) to calculate the relative turbidity (RTU) of the validation set of chemicals. To the naked eye, 20 NTU is perceptible, while the nephelometer was sensitive to 5 NTU, with 1 NTU equivalent to background (solvent/medium blank).

PHH = experiment: Cytotoxicity assay (resazurin) in PHH, 72 hours; assay type: cell-based, human; settings: viability reduction <20%
Protocol: (§1) Potential cytotoxicity of the validation set chemicals for PHH and HepaRG cells was determined starting from the highest soluble concentration, followed by a 1:1 or 1:3 dilution for PHH and HepaRG cells, respectively. The incubation time reflected the conditions used for the induction assays (72 hours and 48 hours of incubation for PHH and HepaRG cells, respectively). The cytotoxicity assay was based on the conversion of redox dye resazurin to fluorescent resorufin by living cells. Non-viable cells, without metabolic capacity, yield no fluorimetry signal.
(§2) Results were expressed as fractional survival (FS %) with respect to untreated controls and were calculated based on measured relative fluorescent units (RFU), corrected for the background signal: %FS=RFUtreated cells−meanRFUbackground/RFUuntreated cells−meanRFUbackgroundx100
(§3) Cytotoxicity was evaluated from the dose-response curve, where the mean FS (%) of three technical replicates was plotted versus the corresponding concentration.
(§4) The SOP acceptance criteria required a cell viability of 50-70 % for doxorubicin (8 μM, HepaRG cells) and ≤70 % for chlorpromazine (25 μM, PHH), the cytotoxicity reference items. The highest concentration with viability reduction <20% (PHH) or <10% (HepaRG) was eligible as starting concentration for the induction assay.

HepaRG cells = experiment: Cytotoxicity assay (resazurin) in HepaRG cells, 48 hours; assay type: cell-based, human; settings: viability reduction <10%
Protocol: as §1, §2, §3, §4

Compound: CO[C@H]1/C=C/O[C@@]2(C)Oc3c(C)c(O)c4c(c3C2=O)C2=NC3(CCN(CC(C)C)CC3)NC2=C(NC(=O)/C(C)=C\C=C\[C@H](C)[C@H](O)[C@@H](C)[C@@H](O)[C@@H](C)[C@H](OC(C)=O)[C@@H]1C)C4=O [Rifabutin]
CYP induction in vivo literature reference: CYP3A4 (CYP3A4 [1]): CYP1A2 NOT induced ([Gillum et al., 1996]) CYP2B6 NO studies CYP3A4 ([Horita and Doi, 2014]; [Barditch-Crovo et al., 1999]) | Induction in vivo (CYP3A4 [1]): Yes | CYP induction in vitro (human hepatocytes) (CYP): CYP1A2, CYP3A4 | HepaRG medium stability ([2]; Lab 1, visual observation): 40 µg/mL | HepaRG medium stability ([2]; Lab 2, visual observation): 20 µg/mL | HepaRG medium stability ([2]; Lab 3, visual observation): 40 µg/mL | PHH medium stability ([2]; Lab 4, visual observation): 40 µg/mL | PHH medium stability ([2]; Lab 5, visual observation): 40 µg/mL | PHH medium stability ([2]; Lab 6, visual observation): 40 µg/mL | Induction in vivo (CYP1A2 [3]; CYP1A2, human, ref Table 1): No | CYP induction in vivo literature reference: CYP1A2 (CYP1A2 [3]): CYP1A2 NOT induced ([Gillum et al., 1996]) CYP2B6 NO studies CYP3A4 ([Horita and Doi, 2014]; [Barditch-Crovo et al., 1999]) | Prediction in vivo inducer (CYP1A2 [4]; CYP1A2, PHH, Cmax/F2 >0.5 criterion): No | F2 (CYP1A2 [4]; CYP1A2, PHH, in vitro concentration producing 2-fold induction): 2.2 to 6.7 µM | Induction in vitro (CYP1A2 [4]; CYP1A2, PHH, positive in one donor in each of the three laboratories): Yes | Assigned classification CYP1A2 (CYP1A2 [4]; Lab 1, batch 0 6 A): 1 | Assigned classification CYP1A2 (CYP1A2 [4]; Lab 1, batch 4 0 8): 1 | Assigned classification CYP1A2 (CYP1A2 [4]; Lab 1, batch 8 0 8): 0 | Assigned classification CYP1A2 (CYP1A2 [4]; Lab 2, batch 0 6 A): 0 | Assigned classification CYP1A2 (CYP1A2 [4]; Lab 2, batch 4 0 8): 0 | Assigned classification CYP1A2 (CYP1A2 [4]; Lab 2, batch 8 0 8): 1 | Assigned classification CYP1A2 (CYP1A2 [4]; Lab 3, batch 0 6 A): 1 | Assigned classification CYP1A2 (CYP1A2 [4]; Lab 3, batch 4 0 8): 0 | Assigned classification CYP1A2 (CYP1A2 [4]; Lab 3, batch 8 0 8): 0 | Induction in vitro (CYP3A4 [5]): Yes | Prediction in vivo inducer (CYP3A4 [5]): Yes | Summary predictive capacity, CYP3A4 induction (Y/N) (CYP3A4 [5]; hepatocytes): Y | Cmax/F2 (CYP3A4 [5]; human): 4.4 | F2 (CYP3A4 [5]; human): 0.1 µM | F2 (CYP2B6; CYP2B6, PHH): 0.29 to 0.87 µM | Induction in vitro (CYP2B6; CYP2B6, PHH): induced CYP2B6 and Yes | Prediction in vivo inducer (CYP2B6; CYP2B6, PHH): Yes | Assigned classification CYP2B6 (CYP2B6; Lab 1, batch 0 6 A): 1 | Assigned classification CYP2B6 (CYP2B6; Lab 1, batch 4 0 8): 0 | Assigned classification CYP2B6 (CYP2B6; Lab 1, batch 8 0 8): 1 | Assigned classification CYP2B6 (CYP2B6; Lab 2, batch 0 6 A): 0 | Assigned classification CYP2B6 (CYP2B6; Lab 2, batch 4 0 8): 0 | Assigned classification CYP2B6 (CYP2B6; Lab 2, batch 8 0 8): 1 | Assigned classification CYP2B6 (CYP2B6; Lab 3, batch 0 6 A): 1 | Assigned classification CYP2B6 (CYP2B6; Lab 3, batch 4 0 8): 1 | Assigned classification CYP2B6 (CYP2B6; Lab 3, batch 8 0 8): 1 | Cmax ([6]; human in vivo plasma concentration, normal dose): 440 nM | Cmax ([6]; human in vivo, normal dose (Table 10)): 440 nM | HepaRG medium stability [7]: 40 µg/mL | PHH medium stability [7]: 40 µg/mL

HepaRG medium stability ([2]; Lab 1, visual observation): 5 µg/mL | HepaRG medium stability ([2]; Lab 2, visual observation): 10 µg/mL | HepaRG medium stability ([2]; Lab 3, visual observation): 10 µg/mL | PHH medium stability ([2]; Lab 4, visual observation): 10 µg/mL | PHH medium stability ([2]; Lab 5, visual observation): 20 µg/mL | PHH medium stability ([2]; Lab 6, visual observation): 20 µg/mL | nephelometry finding in assay medium ([7]; 40 μg/ml, the two media): insoluble suspensions | HepaRG medium stability [7]: 10^2 μg/mL | PHH medium stability [7]: 10^2 μg/mL
Compound: OCc1c[nH]c2ccccc12 [Indole-3-carbinol]
CYP induction in vitro (human hepatocytes) (CYP): CYP1A2 | highest soluble non cytotoxic concentration used for the subsequent induction assay, PHH (PHH): insoluble (excluded) | CYP induction in vivo literature reference: CYP1A2 (CYP1A2 [3]): CYP 1A2 ([Reed et al., 2005]) CYP2B6/CYP3A4 NO studies | highest soluble non cytotoxic concentration used for the subsequent induction assay, HepaRG (HepaRG cells): insoluble (excluded)
